Laboratory results: ChEMBL document CHEMBL1131776, “Potent, elective human beta3 adrenergic receptor agonists containing a substituted indoline-5-sulfonamide pharmacophore” (Bioorg Med Chem Lett, 1999)

Columns and labels:
[1] = target: Beta-1 adrenergic receptor (Homo sapiens, UniProt P08588); assay: biochemical
Description: In vitro binding affinity towards cloned human beta-1 adrenergic receptor using [125I]iodocyanopindolol as radioligand to stimulate increase in cAMP in CHO cells

[2] = target: Beta-2 adrenergic receptor (Homo sapiens, UniProt P07550); assay: biochemical
Description: In vitro binding affinity towards cloned human beta-2 adrenergic receptor using [125I]iodocyanopindolol as radioligand to stimulate increase in cAMP in CHO cells

[3] = target: T1, Beta-3 adrenergic receptor (Homo sapiens, UniProt P13945); assay: In vitro agonistic activity against cloned human beta-3 adrenergic receptor […] increase in cAMP in CHO cells; format: functional, cell-based
Target sequence in this assay (P13945 whole entry): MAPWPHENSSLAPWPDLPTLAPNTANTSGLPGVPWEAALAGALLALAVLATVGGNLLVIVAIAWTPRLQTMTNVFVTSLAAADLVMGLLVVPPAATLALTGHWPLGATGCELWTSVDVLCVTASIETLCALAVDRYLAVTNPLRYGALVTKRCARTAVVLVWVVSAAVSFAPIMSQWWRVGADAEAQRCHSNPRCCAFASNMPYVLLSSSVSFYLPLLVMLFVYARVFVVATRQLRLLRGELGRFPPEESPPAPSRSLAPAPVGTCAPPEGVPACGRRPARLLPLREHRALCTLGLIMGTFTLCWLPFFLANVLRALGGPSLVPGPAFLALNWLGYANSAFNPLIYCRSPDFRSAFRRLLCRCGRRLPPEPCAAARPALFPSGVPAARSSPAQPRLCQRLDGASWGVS

[4] = target: T1, Beta-3 adrenergic receptor; assay: Adenylyl cyclase activation as percent maximal stimulation with isoproterenol at 100 nM; format: functional
Target sequence in this assay (P13945 whole entry, looked up): as the sequence (P13945 whole entry) above

Sequence of Beta-2 adrenergic receptor (P07550 whole entry): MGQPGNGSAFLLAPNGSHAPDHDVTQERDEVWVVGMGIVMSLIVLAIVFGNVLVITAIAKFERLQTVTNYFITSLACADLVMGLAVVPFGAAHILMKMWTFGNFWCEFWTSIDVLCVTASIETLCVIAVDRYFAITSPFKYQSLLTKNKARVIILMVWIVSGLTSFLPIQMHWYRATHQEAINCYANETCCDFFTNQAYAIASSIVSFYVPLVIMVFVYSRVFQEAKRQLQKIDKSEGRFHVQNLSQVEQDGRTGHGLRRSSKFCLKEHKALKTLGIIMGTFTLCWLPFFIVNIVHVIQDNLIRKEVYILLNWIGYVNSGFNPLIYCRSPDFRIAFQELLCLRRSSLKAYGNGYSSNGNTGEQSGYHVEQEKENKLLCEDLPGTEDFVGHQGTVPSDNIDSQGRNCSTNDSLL
Sequence of Beta-1 adrenergic receptor (P08588 whole entry): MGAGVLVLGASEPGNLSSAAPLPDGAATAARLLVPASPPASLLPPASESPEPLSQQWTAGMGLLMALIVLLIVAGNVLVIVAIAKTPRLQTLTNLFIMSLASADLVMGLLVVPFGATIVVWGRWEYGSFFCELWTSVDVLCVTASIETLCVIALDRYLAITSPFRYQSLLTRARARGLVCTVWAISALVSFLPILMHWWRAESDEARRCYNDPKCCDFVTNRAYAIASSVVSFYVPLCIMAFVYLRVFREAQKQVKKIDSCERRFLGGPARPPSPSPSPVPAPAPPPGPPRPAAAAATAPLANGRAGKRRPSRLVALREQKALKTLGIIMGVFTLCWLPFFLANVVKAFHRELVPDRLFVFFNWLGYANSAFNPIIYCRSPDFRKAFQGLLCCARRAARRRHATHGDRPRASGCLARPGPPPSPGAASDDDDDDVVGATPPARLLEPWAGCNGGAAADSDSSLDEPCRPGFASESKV

| SMILES | IC50 [1] [nM] | IC50 [2] [nM] | EC50 [3] [nM] | Activation [4] [%] |
| --- | --- | --- | --- | --- |
| CCCCCCCCc1nc(N2CCc3cc(S(=O)(=O)Nc4ccccc4)ccc32)no1 | 580 | 100 | 31 | – |
| CCCCCCc1cccc(N2CCc3cc(S(=O)(=O)Nc4ccccc4)ccc32)c1 | 700 | 460 | 1.8 | – |
| CCCCCCN(C)C(=O)N1CCc2cc(S(=O)(=O)Nc3ccccc3)ccc21 | 10000 | 6500 | 47 | – |
| CN(C)C(=O)N1CCc2cc(S(=O)(=O)Nc3ccccc3)ccc21 | 9000 | 7000 | – | 8 |
| CN(CCc1ccccc1)C(=O)N1CCc2cc(S(=O)(=O)Nc3ccccc3)ccc21 | 10000 | 2500 | 55 | – |
| CCCCCCCCc1csc(N2CCc3cc(S(=O)(=O)Nc4ccccc4)ccc32)n1 | 2600 | 1300 | 0.93 | – |
| CNC(=O)N1CCc2cc(S(=O)(=O)Nc3ccccc3)ccc21 | 100000 | 7300 | 55 | – |
| CCCCCCCCc1csc(Nc2ccc(S(=O)(=O)Nc3ccccc3)cc2)n1 | 650 | 340 | 0.8 | – |
| CCCCCCc1ccc(N2CCc3cc(S(=O)(=O)Nc4ccccc4)ccc32)nc1 | 1800 | 240 | 1.6 | – |
| O=S(=O)(Nc1ccccc1)c1ccc2c(c1)CCN2c1cccc(CCCC2CCCC2)n1 | 3000 | 450 | 1.7 | – |
| O=S(=O)(Nc1ccccc1)c1ccc2c(c1)CCN2c1cccc(CCCC2CCCC2)c1 | 4000 | 7500 | 5 | – |
| CCCCCCCCN(C)C(=O)N1CCc2cc(S(=O)(=O)Nc3ccccc3)ccc21 | 970 | 1000 | 18 | – |
| CCCCCCc1ccnc(N2CCc3cc(S(=O)(=O)Nc4ccccc4)ccc32)n1 | 1400 | 620 | 5.1 | – |
| CCCCCCCCNC(=O)N1CCc2cc(S(=O)(=O)Nc3ccccc3)ccc21 | 1000 | 630 | 0.73 | – |
| CCCCCCCCc1csc(N(C)c2ccc(S(=O)(=O)Nc3ccccc3)cc2)n1 | 1500 | 440 | 5.5 | – |
| CCCCCCC(=O)N1CCc2cc(S(=O)(=O)Nc3ccccc3)ccc21 | 10000 | 2000 | 88 | – |

| SMILES | IC50 [1] [nM] | IC50 [2] [nM] | EC50 [3] [nM] | Activation [4] [%] |
| --- | --- | --- | --- | --- |
| CCCCCCNC(=O)N1CCc2cc(S(=O)(=O)Nc3ccccc3)ccc21 | 40000 | 36000 | 6.9 | – |
| CCCCCCNC(=O)N(C)c1ccc(S(=O)(=O)Nc2ccc(CCNC[C@H](O)c3cccnc3)cc2)cc1 | 10000 | 10000 | – | 20 |
| CCCCCCc1cccc(N2CCc3cc(S(=O)(=O)Nc4ccccc4)ccc32)n1 | 900 | 140 | 1.2 | – |
| O=S(=O)(Nc1ccccc1)c1ccc2c(c1)CCN2c1noc(CCCC2CCCC2)n1 | 330 | 42 | – | 20 |
| CCCCCCCCc1cccc(N2CCc3cc(S(=O)(=O)Nc4ccccc4)ccc32)n1 | 220 | 63 | 1 | – |
| O=S(=O)(Nc1ccccc1)c1ccc2c(c1)CCN2c1nc(CCCC2CCCC2)cs1 | 4000 | 900 | 3.2 | – |
| O=S(=O)(Nc1ccc(CCNC[C@H](O)COc2ccc(O)cc2)cc1)c1ccc2c(c1)CCN2 | – | – | 0.65 | – |
| CCCCCCCCc1cnc(N2CCc3cc(S(=O)(=O)Nc4ccccc4)ccc32)o1 | 4200 | 180 | 3.7 | – |
| CCCCCCc1csc(N2CCc3cc(S(=O)(=O)Nc4ccccc4)ccc32)n1 | 1400 | 510 | 0.9 | – |
| CCCCCCc1nc(N2CCc3cc(S(=O)(=O)Nc4ccccc4)ccc32)no1 | 600 | 52 | 13 | – |
| CN(C(=O)N1CCc2cc(S(=O)(=O)Nc3ccccc3)ccc21)C(C)(C)Cc1ccccc1 | 3000 | 8000 | – | 17 |
| CCCCCCCCC(=O)N1CCc2cc(S(=O)(=O)Nc3ccccc3)ccc21 | 1800 | 1000 | 7 | – |
| Cc1csc(N2CCc3cc(S(=O)(=O)Nc4ccccc4)ccc32)n1 | 4000 | 750 | 8.1 | – |
| CCCCCCCCc1ccnc(N2CCc3cc(S(=O)(=O)Nc4ccccc4)ccc32)n1 | 1000 | 530 | 2.4 | – |
| CCCCCCCCc1cccc(N2CCc3cc(S(=O)(=O)Nc4ccccc4)ccc32)c1 | 2500 | 1500 | 1.3 | – |
